# Results as given in ChEMBL document CHEMBL4145521, “Regioselective synthesis of 3,4-diaryl-5-unsubstituted isoxazoles, analogues of natural cytostatic combretastatin A4” (Eur J Med Chem, 2018).
# What was measured:
# Assay type in all cases: functional
# HL-60(TB) = experiment: Cytotoxicity against human HL-60(TB) cells incubated for 48 hrs by sulforhodamine B assay; settings: HL-60, 48 h
# PC-3 = experiment: Cytotoxicity against human PC3 cells assessed as cell growth at 100 uM incubated for 48 hrs by sulforhodamine B assay relative to control; settings: PC-3, 48 h, read-out: Activity
# A498 = experiment: Cytotoxicity against human A498 cells assessed as cell growth at 1 uM incubated for 48 hrs by sulforhodamine B assay relative to control; settings: A498, 48 h, read-out: Activity
# HCT-15 = experiment: Cytotoxicity against human HCT15 cells assessed as cell growth at 100 uM incubated for 48 hrs by sulforhodamine B assay relative to control; settings: HCT-15, 48 h, read-out: Activity
# NCI-H226 = experiment: Cytotoxicity against human NCI-H226 cells assessed as cell growth at 10 uM incubated for 48 hrs by sulforhodamine B assay relative to control; settings: NCI-H226, 48 h, read-out: Activity
# Hs-578T = experiment: Cytotoxicity against human Hs 578T cells assessed as cell growth at 0.01 uM incubated for 48 hrs by sulforhodamine B assay relative to control; settings: read-out: Activity
# NCI/ADR-RES = experiment: Cytotoxicity against human NCI/ADR-RES cells assessed as cell growth at 0.1 uM incubated for 48 hrs by sulforhodamine B assay relative to control; settings: read-out: Activity
# SK-MEL-5 [1] = experiment: Cytotoxicity against human SK-MEL-5 cells assessed as cell growth at 0.1 uM incubated for 48 hrs by sulforhodamine B assay relative to control; settings: SK-MEL-5, 48 h, read-out: Activity
# SR [2] = experiment: Cytotoxicity against human SR cells assessed as cell growth at 100 uM incubated for 48 hrs by sulforhodamine B assay relative to control; settings: read-out: Activity
# NCI-H460 = experiment: Cytotoxicity against human NCI-H460 cells assessed as cell growth at 100 uM incubated for 48 hrs by sulforhodamine B assay relative to control; settings: NCI-H460, 48 h, read-out: Activity
# CCRF-CEM = experiment: Cytotoxicity against human CCRF-CEM cells incubated for 48 hrs by sulforhodamine B assay
# SK-MEL-5 [3] = experiment: Cytotoxicity against human SK-MEL-5 cells assessed as cell growth at 10 uM incubated for 48 hrs by sulforhodamine B assay relative to control; settings: SK-MEL-5, 48 h, read-out: Activity
# KM12 = experiment: Cytotoxicity against human KM12 cells assessed as cell growth at 0.1 uM incubated for 48 hrs by sulforhodamine B assay relative to control; settings: KM12, 48 h, read-out: Activity
# LOX IMVI = experiment: Cytotoxicity against human LOXIMVI cells incubated for 48 hrs by sulforhodamine B assay
# DU-145 [4] = experiment: Cytotoxicity against human DU145 cells incubated for 48 hrs by sulforhodamine B assay; settings: DU-145, 48 h
# CAKI-1 = experiment: Cytotoxicity against human Caki1 cells assessed as cell growth at 0.01 uM incubated for 48 hrs by sulforhodamine B assay relative to control; settings: CAKI-1, 48 h, read-out: Activity
# HT-29 [5] = experiment: Cytotoxicity against human HT-29 cells incubated for 48 hrs by sulforhodamine B assay; settings: HT-29, 48 h
# MDA-MB-231 = experiment: Cytotoxicity against human MDA-MB-231 cells assessed as cell growth at 100 uM incubated for 48 hrs by sulforhodamine B assay relative to control; settings: MDA-MB-231, 48 h, read-out: Activity
# Malme-3M = experiment: Cytotoxicity against human MALME-3M cells assessed as cell growth at 10 uM incubated for 48 hrs by sulforhodamine B assay relative to control; settings: read-out: Activity
# U-251 = experiment: Cytotoxicity against human U251 cells assessed as cell growth at 10 uM incubated for 48 hrs by sulforhodamine B assay relative to control; settings: U-251, 48 h, read-out: Activity
# COLO 205 [6] = experiment: Cytotoxicity against human COLO205 cells assessed as cell growth at 10 uM incubated for 48 hrs by sulforhodamine B assay relative to control; settings: COLO 205, 48 h, read-out: Activity
# COLO 205 [7] = experiment: Cytotoxicity against human COLO205 cells incubated for 48 hrs by sulforhodamine B assay; settings: COLO 205, 48 h
# SNB-19 = experiment: Cytotoxicity against human SNB19 cells assessed as cell growth at 1 uM incubated for 48 hrs by sulforhodamine B assay relative to control; settings: SNB-19, 48 h, read-out: Activity
# SF-295 = experiment: Cytotoxicity against human SF295 cells assessed as cell growth at 0.01 uM incubated for 48 hrs by sulforhodamine B assay relative to control; settings: SF-295, 48 h, read-out: Activity
# OVCAR-3 = experiment: Cytotoxicity against human OVCAR3 cells assessed as cell growth at 0.1 uM incubated for 48 hrs by sulforhodamine B assay relative to control; settings: OVCAR-3, 48 h, read-out: Activity
# DU-145 [8] = experiment: Cytotoxicity against human DU145 cells assessed as cell growth at 10 uM incubated for 48 hrs by sulforhodamine B assay relative to control; settings: DU-145, 48 h, read-out: Activity
# HT-29 [9] = experiment: Cytotoxicity against human HT-29 cells assessed as cell growth at 10 uM incubated for 48 hrs by sulforhodamine B assay relative to control; settings: HT-29, 48 h, read-out: Activity
# SR [10] = experiment: Cytotoxicity against human SR cells assessed as cell growth at 0.01 uM incubated for 48 hrs by sulforhodamine B assay relative to control; settings: read-out: Activity
# SF-539 = experiment: Cytotoxicity against human SF539 cells incubated for 48 hrs by sulforhodamine B assay; settings: SF-539, 48 h
# HOP-92 = experiment: Cytotoxicity against human HOP92 cells assessed as cell growth at 0.1 uM incubated for 48 hrs by sulforhodamine B assay relative to control; settings: HOP-92, 48 h, read-out: Activity
# [11] = read-out: LC50 (the source's name)
# [12] = read-out: pLC50 (the source's name) (converted)
compound,measurement,setting,value
COc1ccc(-c2nocc2-c2cc(OC)c(OC)c(OC)c2)cc1,GI50,HL-60(TB); read-out: GI50,48.8 nM
same,CC50,HL-60(TB); [11],> 100000 nM
same,TGI,HL-60(TB); read-out: TGI,391 nM
same,GI50,HL-60(TB); read-out: pGI50 (converted),49 nM
same,CC50,HL-60(TB); [12],> 100000 nM
same,TGI,HL-60(TB); read-out: pTGI (converted),389 nM
same,growth at 100 µM,PC-3,-13%
same,growth at 1 µM,A498,-3%
same,growth at 100 µM,HCT-15,1%
same,growth at 10 µM,NCI-H226,67%
same,growth at 0.01 µM,Hs-578T,92%
same,growth at 0.1 µM,NCI/ADR-RES,34%
same,growth at 0.1 µM,SK-MEL-5 [1],41%
same,growth at 100 µM,SR [2],-7%
same,growth at 100 µM,NCI-H460,-37%
same,GI50,CCRF-CEM; read-out: GI50,404 nM
same,LC50,CCRF-CEM; read-out: LC50,> 100000 nM
same,TGI,CCRF-CEM; read-out: TGI,> 100000 nM
same,GI50,CCRF-CEM; read-out: pGI50 (converted),407 nM
same,LC50,CCRF-CEM; read-out: pLC50 (converted),> 100000 nM
same,TGI,CCRF-CEM; read-out: pTGI,> 100000 nM
same,growth at 10 µM,SK-MEL-5 [3],-11%
same,growth at 0.1 µM,KM12,26%
same,GI50,LOX IMVI; read-out: GI50,254 nM
same,LC50 (concentration killing 50% of cells),LOX IMVI; read-out: LC50,> 100000 nM
same,TGI,LOX IMVI; read-out: TGI,55500 nM
same,GI50,LOX IMVI; read-out: pGI50 (converted),257 nM
same,LC50 (concentration killing 50% of cells),LOX IMVI; read-out: pLC50 (converted),> 100000 nM
same,TGI,LOX IMVI; read-out: pTGI (converted),55000 nM
same,GI50,DU-145 [4]; read-out: GI50,244 nM
same,CC50,DU-145 [4]; [11],> 100000 nM
same,TGI,DU-145 [4]; read-out: TGI,> 100000 nM
same,GI50,DU-145 [4]; read-out: pGI50 (converted),245 nM
same,CC50,DU-145 [4]; [12],> 100000 nM
same,TGI,DU-145 [4]; read-out: pTGI,> 100000 nM
same,growth at 0.01 µM,CAKI-1,90%
same,GI50,HT-29 [5]; read-out: GI50,36.5 nM
same,LC50,HT-29 [5]; read-out: LC50,> 100000 nM
same,TGI,HT-29 [5]; read-out: TGI,12000 nM
same,GI50,HT-29 [5]; read-out: pGI50 (converted),36.3 nM
same,LC50,HT-29 [5]; read-out: pLC50 (converted),> 100000 nM
same,TGI,HT-29 [5]; read-out: pTGI (converted),12000 nM
same,growth at 100 µM,MDA-MB-231,-15%
same,growth at 10 µM,Malme-3M,60%
same,growth at 10 µM,U-251,19%
same,growth at 10 µM,COLO 205 [6],-27%
same,GI50,COLO 205 [7]; read-out: GI50,58.1 nM
same,CC50,COLO 205 [7]; [11],> 100000 nM
same,TGI,COLO 205 [7]; read-out: TGI,1910 nM
same,GI50,COLO 205 [7]; read-out: pGI50 (converted),57.5 nM
same,CC50,COLO 205 [7]; [12],> 100000 nM
same,TGI,COLO 205 [7]; read-out: pTGI (converted),1910 nM
same,growth at 1 µM,SNB-19,36%
same,growth at 0.01 µM,SF-295,84%
same,growth at 0.1 µM,OVCAR-3,15%
same,growth at 10 µM,DU-145 [8],11%
same,growth at 10 µM,HT-29 [9],3%
same,growth at 0.01 µM,SR [10],99%
same,GI50,SF-539; read-out: GI50,173 nM
same,LC50 (concentration killing 50% of cells),SF-539; read-out: LC50,> 100000 nM
same,TGI,SF-539; read-out: TGI,13700 nM
same,GI50,SF-539; read-out: pGI50 (converted),174 nM
same,LC50 (concentration killing 50% of cells),SF-539; read-out: pLC50 (converted),> 100000 nM
same,TGI,SF-539; read-out: pTGI (converted),13800 nM
same,growth at 0.1 µM,HOP-92,72%
